This note sets out measurements from ChEMBL document CHEMBL1138364 (J Med Chem, 2007).

Series [1] deals with Human alphaherpesvirus 3. As to the kind of experiment: Antiviral activity against TK+ VZV OKA in HEL cells after 5 days. Type of series: functional, organism-based. To be noted: Human alphaherpesvirus 3, OKA, 120 h.
For series [2], the system named is Human alphaherpesvirus 3. The series can be described thus: Antiviral activity against TK+ VZV YS in HEL cells after 5 days. The format is functional, organism-based. To be noted: Human alphaherpesvirus 3, YS, 120 h.
The subject of series [3] is Human alphaherpesvirus 3. As to the kind of experiment: Antiviral activity against TK- VZV 07 in HEL cells after 5 days. The format is functional, organism-based. Conditions: Human alphaherpesvirus 3, 07, HEL, 120 h.
A short description of series [4]: Cytotoxicity against HEL cells assessed as alteration in cell morphology. The format is cell-based. Conditions: human.
The nature of series [5]: Cytotoxicity against HEL cells. The format is cell-based. To be noted: human.
A short description of series [6]: Inhibition of VZV-TK catalyzed dThd phosphorylation. The arrangement: species or system Human alphaherpesvirus 3.
Series [7] deals with Human alphaherpesvirus 3. As to the kind of experiment: Antiviral activity against TK- VZV YS in HEL cells after 5 days. The format is functional, organism-based. Conditions: Human alphaherpesvirus 3, YS, 120 h.

As a reminder, the EC50 is the concentration at which the effect is half-maximal. In general, CC50 refers to the concentration giving 50% cytotoxicity. As a reminder, the IC50 is the concentration at which inhibition is half-maximal. On to `CCCCCc1ccc(-c2cc3cn([C@@H]4C[C@H](CO)[C@@H](O)C4)c(=O)nc3o2)cc1`, for which the values for the half-maximal effective concentration (EC50) with Human alphaherpesvirus 3 [1], in the series on Human alphaherpesvirus 3 [2] and in the series on Human alphaherpesvirus 3 [3] were 490 nM, 280 nM and over 50000 nM, respectively. Moreover, the MCC in series [4] is over 50 µM. The compound also yielded a CC50 in series [5] of over 50000 nM. Also, half-maximal inhibition in series [6] (IC50) was put at 44000 nM.

As to `Nc1nc2c(ncn2COCCO)c(=O)[nH]1` [ACYCLOVIR], the MCC in series [4] is over 200 µM. The compound further registered a CC50 in series [5] of over 200000 nM.

Consider `O=c1[nH]c(=O)n([C@H]2C[C@H](O)[C@@H](CO)O2)cc1/C=C/Br` [BRIVUDINE], for which the EC50 in the series on Human alphaherpesvirus 3 [1] was 5 nM; in the series on Human alphaherpesvirus 3 [2] it was 5 nM; in the series with Human alphaherpesvirus 3 [3] it was over 200000 nM; in the series with Human alphaherpesvirus 3 [7], over 200000 nM. The MCC in series [4] was over 200 µM. The CC50 in series [5] is over 200000 nM. Moreover, the IC50 in series [6] was found to be 1300 nM.

Take `CCCCCc1ccc(-c2cc3cn([C@H]4C[C@H](O)[C@@H](CO)O4)c(=O)nc3o2)cc1` [CF1743]: in series [4], the MCC was over 20 µM.
